Key:
Assay type in all cases: functional, cell-based
Settings in all cases: oocyte
[1] = target: T1, Hepatic sodium/bile acid cotransporter (Rattus norvegicus, UniProt P26435); assay: TP_TRANSPORTER: inhibition of Taurocholate uptake (Taurochorate: 17 uM, Probenecid: 1000 uM) in Xenopus laevis oocytes
T1 sequence (P26435 whole entry): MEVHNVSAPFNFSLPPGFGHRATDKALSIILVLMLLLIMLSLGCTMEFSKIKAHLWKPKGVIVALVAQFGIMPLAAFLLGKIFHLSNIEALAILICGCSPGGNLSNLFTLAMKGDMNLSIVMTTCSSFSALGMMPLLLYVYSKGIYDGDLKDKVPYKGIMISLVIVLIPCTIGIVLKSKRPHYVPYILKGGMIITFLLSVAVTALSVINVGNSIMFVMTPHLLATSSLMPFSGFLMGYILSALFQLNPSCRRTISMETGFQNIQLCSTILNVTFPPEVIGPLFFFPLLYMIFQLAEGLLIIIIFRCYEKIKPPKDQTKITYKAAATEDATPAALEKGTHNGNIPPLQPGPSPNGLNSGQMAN

[2] = target: T1, Hepatic sodium/bile acid cotransporter; assay: TP_TRANSPORTER: inhibition of Taurocholate uptake (Taurochorate: 17 uM, BSP: 100 uM) in Xenopus laevis oocytes
[3] = target: T1, Hepatic sodium/bile acid cotransporter; assay: TP_TRANSPORTER: inhibition of Taurocholate uptake (Taurochorate: 17 uM, Bumetanide: 500 uM) in Xenopus laevis oocytes
[4] = target: T1, Hepatic sodium/bile acid cotransporter; assay: TP_TRANSPORTER: inhibition of Taurocholate uptake (Taurochorate: 17 uM, TCDC: 100 uM) in Xenopus laevis oocytes

For `CCCN(CCC)S(=O)(=O)c1ccc(C(=O)O)cc1` [PROBENECID], the Activity [1] was “inhibitor [(at a rough estimate) 70 % of control]”.

`O=C1OC(c2ccc(O)c(S(=O)(=O)[O-])c2)(c2ccc(O)c(S(=O)(=O)[O-])c2)c2c(Br)c(Br)c(Br)c(Br)c21.[Na+].[Na+]` [SULFOBROMOPHTHALEIN SODIUM] was tested, and the Activity [2] was “inhibitor [(at a rough estimate) 25 % of control]”.

For `CCCCNc1cc(C(=O)O)cc(S(N)(=O)=O)c1Oc1ccccc1` [BUMETANIDE], the Activity [3] was “inhibitor [(at a rough estimate) 50 % of control]”.

For `C[C@H](CCC(=O)NCCS(=O)(=O)O)[C@H]1CC[C@H]2[C@@H]3[C@H](O)C[C@@H]4C[C@H](O)CC[C@]4(C)[C@H]3CC[C@]12C` [TAUROCHENODEOXYCHOLATE], the Activity [4] was “inhibitor [(at a rough estimate) 15 % of control]”.

Source: ChEMBL document CHEMBL2074189, “Functional expression cloning and characterization of the hepatocyte Na+/bile acid cotransport system” (Proc Natl Acad Sci U S A, 1991)
